The values below come from patent publication US20210238184A1, “THERAPEUTIC COMPOUNDS” (Genentech, Inc., priority 2018, published 2021).

Assay [1] concerns the target TEAD2 YAP50-100 (Homo sapiens, UniProt Q15562). Put plainly: TEAD2:YAP50-100 protein-protein interaction HTRF (TR-FRET) assay. Particulars: His-tagged TEAD YAP binding domain (aa 217-447), biotinylated YAP peptide aa 50-100; 30 min pre-incubation, 60 min at room temperature; read-out: TEAD2 YAP50-100 HTRF WuXi EC50. As to the method:
(§1) Purified His-tagged TEAD protein (YAP Binding Domain, amino acids 217-447) is pre-incubated with Europium labelled anti-His antibody tracer (Perkin Elmer Cat #AD0110). Small molecule Inhibitors are then incubated with the TEAD-Eu protein complex for 30 minutes to allow for binding to TEAD protein. Biotinylated YAP peptide (AA's 50-100) that has been pre-incubated with streptavidin x1665 acceptor (CIS-Bio Cat #610SAXAC) is added to the compound-TEAD mix. The TEAD-YAP-inhibitor mixture is then incubated for 60 minutes at room temperature. All reactions are carried out in a polystyrene plate. After 60 minutes, the plate is read on a plate reader using TR-FRET mode with wavelengths of 665 nm/615 nm. If YAP binds to TEAD as expected, a TR-FRET signal results from the proximity of YAP and TEAD after binding. If an inhibitor such as peptide 17 (Selleckchem Cat #S8164) interferes with YAP-TEAD binding, the disruption of the YAP:TEAD interaction results in a decrease in TR-FRET signal. The potency of compounds as YAP:TEAD protein-protein interaction (PPi) inhibitors is determined by an IC50 or EC50 value generated using a non-linear four parameter curve fit.
A general note: In TR-FRET formats the signal depends on donor and acceptor labels being close together.

In assay [2] the target is TEAD3 YAP50-100 (Homo sapiens, UniProt Q99594). Put plainly: TEAD3:YAP50-100 protein-protein interaction HTRF (TR-FRET) assay. Particulars: His-tagged TEAD YAP binding domain (aa 217-447), biotinylated YAP peptide aa 50-100; 30 min pre-incubation, 60 min at room temperature; read-out: TEAD3 YAP50-100 HTRF WuXi EC50. The method, then:
as §1

Chain of TEAD2 YAP50-100 (Q15562 217-447): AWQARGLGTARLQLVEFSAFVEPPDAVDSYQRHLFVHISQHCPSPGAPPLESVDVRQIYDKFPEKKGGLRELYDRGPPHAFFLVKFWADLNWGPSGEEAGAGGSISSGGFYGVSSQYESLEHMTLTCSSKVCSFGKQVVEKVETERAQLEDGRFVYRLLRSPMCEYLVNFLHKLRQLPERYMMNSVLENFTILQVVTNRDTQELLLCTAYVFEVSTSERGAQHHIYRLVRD
Chain of TEAD3 YAP50-100 (Q99594 216-435 limits assumed): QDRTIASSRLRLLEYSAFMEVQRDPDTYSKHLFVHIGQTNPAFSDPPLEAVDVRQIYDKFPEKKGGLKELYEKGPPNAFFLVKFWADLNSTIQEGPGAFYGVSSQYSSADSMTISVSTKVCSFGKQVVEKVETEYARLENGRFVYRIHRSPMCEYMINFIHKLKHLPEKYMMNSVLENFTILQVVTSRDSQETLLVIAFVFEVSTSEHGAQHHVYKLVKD

In general, EC50 refers to the midpoint of the concentration-response curve. Turning to `CCOC(=O)c1cnn2c(=O)cc(-c3ccc(C4CCCC4)cc3)[nH]c12` [Example 2, Ethyl 5-(4-cyclopentylphenyl)-7-oxo-4,7-dihydropyrazolo[1,5-a]pyrimidine-3-carboxylate], the EC50 in assay [1] was determined as 120 nM; in assay [2], 19 nM.

As for `CC1(F)CN(C(=O)c2cnn3c(=O)cc(-c4ccc(C5CCCCC5)cc4)[nH]c23)C1` [Example 40, 5-(4-Cyclohexylphenyl)-3-(3-fluoro-3-methylazetidine-1-carbonyl)pyrazolo[1,5-a]pyrimidin-7(4H)-one], the values for the EC50 in assay [1] and in assay [2] were 12.5 nM and 18.5 nM, respectively.

In the case of `CCNC(=O)c1cnn2c(=O)cc(-c3ccc(Oc4ccccc4)cc3)[nH]c12` [Example 17, N-Ethyl-7-oxo-5-(4-phenoxyphenyl)-4,7-dihydropyrazolo[1,5-a]pyrimidine-3-carboxamide], the EC50 turned out to be 55 nM in assay [1] and 5000 nM in assay [2].

With `CCOC(=O)c1cnn2c(=O)cc(-c3ccc(Oc4ccccc4)cc3)[nH]c12` [Example 15, Ethyl 7-oxo-5-(4-phenoxyphenyl)-4,7-dihydropyrazolo[1,5-a]pyrimidine-3-carboxylate], the results for the EC50 in assay [1] and in assay [2] were 836 nM and 532 nM, respectively.

Regarding `CCOC(=O)c1cnn2c(=O)cc(-c3ccc(C4CCCC4(C)C)cc3)[nH]c12` (single isomer, unassigned) [Example 20], the values for the EC50 in assay [1] and in assay [2] were 187 nM and 60 nM, respectively.

As for `CC1CN(C(=O)c2cnn3c(=O)cc(-c4ccc(C5CCCCC5)cc4)[nH]c23)C1` [Example 11, 5-(4-Cyclohexylphenyl)-3-(3-methylazetidine-1-carbonyl)pyrazolo[1,5-a]pyrimidin-7(4H)-one], the values for the EC50 in assay [1] and in assay [2] were 11 nM and 32 nM, respectively.

Turning to `CCOC(=O)c1cnn2c(=O)cc(-c3ccc(C(F)(F)F)cc3)[nH]c12` [Example 23, Ethyl 7-oxo-5-(4-(trifluoromethyl)phenyl)-4,7-dihydropyrazolo[1,5-a]pyrimidine-3-carboxylate], the EC50 was determined as 1780 nM in assay [1] and 834 nM in assay [2].

On to `CN(C)C(=O)c1cnn2c(=O)cc(-c3ccc(C4CCCCC4)cc3)[nH]c12` [Example 7, 5-(4-Cyclohexylphenyl)-N,N-dimethyl-7-oxo-4,7-dihydropyrazolo[1,5-a]pyrimidine-3-carboxamide], for which the values for the EC50 in assay [1] and in assay [2] were 87 nM and 18 nM, respectively.

For the molecule `O=C(c1cnn2c(=O)cc(-c3ccc(C4CCCCC4)cc3)[nH]c12)N1CC(C(F)F)C1` [Example 38, 5-(4-Cyclohexylphenyl)-3-(3-(difluoromethyl)azetidine-1-carbonyl)pyrazolo[1,5-a]pyrimidin-7(4H)-one], the EC50 in assay [1] came out at 12 nM; in assay [2], 27 nM.

Consider `N#C[C@@H]1CCN(C(=O)c2cnn3c(=O)cc(-c4ccc(C5CCCCC5)cc4)[nH]c23)C1` [Example 37, (R)-1-(5-(4-Cyclohexylphenyl)-7-oxo-4,7-dihydropyrazolo[1,5-a]pyrimidine-3-carbonyl)pyrrolidine-3-carbonitrile], for which the EC50 was 8.79 nM in assay [1] and 52.2 nM in assay [2].

As to `CCOC(=O)c1cnn2c(=O)cc(-c3ccc(C4CCCC4(C)C)cc3)[nH]c12` (single isomer, unassigned) [Example 19], the EC50 in assay [1] was found to be 270 nM; in assay [2], 37 nM.

For `N#CC1CN(C(=O)c2cnn3c(=O)cc(-c4ccc(C5CCCCC5)cc4)[nH]c23)C1` [Example 44], the EC50 was 5.85 nM in assay [1] and 13 nM in assay [2].

As to `CN(C)C(=O)c1cnn2c(=O)cc(-c3ccc(C4CCC4)cc3)[nH]c12` [Example 36, 5-(4-Cyclobutylphenyl)-N,N-dimethyl-7-oxo-4,7-dihydropyrazolo[1,5-a]pyrimidine-3-carboxamide], the EC50 in assay [1] was 1870 nM; in assay [2], 28 nM.

`CN(C)C(=O)c1cnn2c(=O)cc(-c3ccc(C4CCCC4(C)C)cc3)[nH]c12` (single isomer, unassigned) [Example 21]: the EC50 in assay [1] worked out at 220 nM; in assay [2], 21 nM.

On to `C[C@H]1[C@@H](CF)CN1C(=O)c1cnn2c(=O)cc(-c3ccc(C4CCCCC4)cc3)[nH]c12` (single isomer, unassigned) [Example 45], for which the EC50 was 8 nM in assay [1] and 43 nM in assay [2].

As to `CCOC(=O)c1c(C)nn2c(=O)cc(-c3ccc(Oc4ccccc4)cc3)[nH]c12` [Example 28, Ethyl 2-methyl-7-oxo-5-(4-phenoxyphenyl)-4,7-dihydropyrazolo[1,5-a]pyrimidine-3-carboxylate], the EC50 turned out to be 3570 nM in assay [1] and 393 nM in assay [2].

Take `CCN(C)C(=O)c1cnn2c(=O)cc(-c3ccc(C4CCCCC4)cc3)[nH]c12` [Example 6, 5-(4-Cyclohexylphenyl)-N-ethyl-N-methyl-7-oxo-4,7-dihydropyrazolo[1,5-a]pyrimidine-3-carboxamide]: the EC50 in assay [1] was determined as 67 nM; in assay [2], 18 nM.

`C[C@@H]1[C@H](CF)CN1C(=O)c1cnn2c(=O)cc(-c3ccc(C4CCCCC4)cc3)[nH]c12` (single isomer, unassigned) [Example 46]: the figures for the EC50 in assay [1] and in assay [2] were 755 nM and 3100 nM, respectively.

Take `CCOC(=O)c1cnn2c(=O)cc(-c3ccc(C(C)(C)C)cc3)[nH]c12` [Example 30]: the EC50 in assay [1] stood at 1620 nM; in assay [2] it was 95 nM.

Turning to `CCOC(=O)c1cnn2c(=O)cc(-c3ccc(OC4CCCCC4)cc3)[nH]c12` [Example 13, Ethyl 5-(4-(Cyclohexyloxy)phenyl)-7-oxo-4,7-dihydropyrazolo[1,5-a]pyrimidine-3-carboxylate], the EC50 turned out to be 793 nM in assay [1] and 66 nM in assay [2].

For the molecule `CN(C)C(=O)c1cnn2c(=O)cc(-c3ccc(C4CCCC4(C)C)cc3)[nH]c12` (single isomer, unassigned) [Example 22], the EC50 in assay [1] is 378 nM; in assay [2], 42 nM.

Regarding `O=C(c1cnn2c(=O)cc(-c3ccc(C4CCCCC4)cc3)[nH]c12)N1CCC1` [Example 8, 3-(Azetidine-1-carbonyl)-5-(4-cyclohexylphenyl)pyrazolo[1,5-a]pyrimidin-7(4H)-one], the EC50 in assay [1] worked out at 38 nM; in assay [2], 23 nM.

As for `CCOC(=O)c1cnn2c(=O)cc(-c3ccc(Oc4ccccc4)c(C)c3)[nH]c12` [Example 14, Ethyl 5-(3-methyl-4-phenoxyphenyl)-7-oxo-4,7-dihydropyrazolo[1,5-a]pyrimidine-3-carboxylate], the EC50 in assay [1] turned out to be 747 nM; in assay [2], 666 nM.

With `O=C(c1cnn2c(=O)cc(-c3ccc(C4CCCCC4)cc3)[nH]c12)N1CC(O)C1` [Example 10, 5-(4-Cyclohexylphenyl)-3-(3-hydroxyazetidine-1-carbonyl)pyrazolo[1,5-a]pyrimidin-7(4H)-one], the EC50 in assay [1] came to 548 nM; in assay [2] it was 72 nM.

For `CNC(=O)c1cnn2c(=O)cc(-c3ccc(C(F)(F)F)cc3)[nH]c12` [Example 25, N-methyl-7-oxo-5-(4-(trifluoromethyl)phenyl)-4,7-dihydropyrazolo[1,5-a]pyrimidine-3-carboxamide], the EC50 stood at 212 nM in assay [1] and 10400 nM in assay [2].

Take `CCNC(=O)c1cnn2c(=O)cc(-c3ccc(C(F)(F)F)cc3)[nH]c12` [Example 24, N-Ethyl-7-oxo-5-(4-(trifluoromethyl)phenyl)-4,7-dihydropyrazolo[1,5-a]pyrimidine-3-carboxamide]: the figures for the EC50 in assay [1] and in assay [2] were 80 nM and 4380 nM, respectively.

Take `O=C(c1cnn2c(=O)cc(-c3ccc(C4CCCCC4)cc3)[nH]c12)N1CC[C@@H]1CF` [Example 43, (R)-5-(4-cyclohexylphenyl)-3-(2-(fluoromethyl)azetidine-1-carbonyl)pyrazolo[1,5-a]pyrimidin-7(4H)-one]: the figures for the EC50 in assay [1] and in assay [2] were 22.5 nM and 28 nM, respectively.

On to `CN(C)C(=O)c1cnn2c(=O)cc(-c3ccc(C4CCCC4)cc3)[nH]c12` [Example 3, 5-(4-Cyclopentylphenyl)-N,N-dimethyl-7-oxo-4,7-dihydropyrazolo[1,5-a]pyrimidine-3-carboxamide], for which the EC50 was determined as 342 nM in assay [1] and 16 nM in assay [2].

`CCOC(=O)c1cnn2c(=O)cc(-c3ccc(N4CCCCC4)cc3)[nH]c12` [Example 18, Ethyl 7-oxo-5-(4-(piperidin-1-yl)phenyl)-4,7-dihydropyrazolo[1,5-a]pyrimidine-3-carboxylate]: the values for the EC50 in assay [1] and in assay [2] were 7350 nM and 239 nM, respectively.

For `CCOC(=O)c1c(C(C)C)nn2c(=O)cc(-c3ccc(Oc4ccccc4)cc3)[nH]c12` [Example 29, Ethyl 2-isopropyl-7-oxo-5-(4-phenoxyphenyl)-4,7-dihydropyrazolo[1,5-a]pyrimidine-3-carboxylate], the values for the EC50 in assay [1] and in assay [2] were 249 nM and 124 nM, respectively.

Take `O=C(NC1CC1)c1cnn2c(=O)cc(-c3ccc(C(F)(F)F)cc3)[nH]c12` [Example 27, N-Cyclopropyl-7-oxo-5-(4-(trifluoromethyl)phenyl)-4,7-dihydropyrazolo[1,5-a]pyrimidine-3-carboxamide]: the EC50 in assay [1] came to 211 nM; in assay [2] it was 3510 nM.
